Laboratory results: paper PMC8880385 (Pharmaceuticals, 2022)
Several values for one entry are separate records, joined by “and”; a condition that tells them apart may be missing. Identical values can stand only once. Entries after “also recorded” stand apart in the source; their conditions may differ.

How the values were obtained:
O. ochengi adult males = assay: O. ochengi adult male motility assay; type: cell-based; settings: Onchocerca ochengi, 120 h; read-out: O. ochengi Adult Males Inhibition of Motility Day 5 IC50
Description: As humans are the only hosts for O. volvulus which are unavailable for screening, drug discovery relies on the surrogate filarial parasites Brugia spp. and cattle Onchocerca spp. Prioritized compounds from the Brugia worm screens were further tested with female and male adult O. ochengi as well as O. ochengi and L. loa mf.
For these assays, O. ochengi adults were extracted from the subcutaneous nodules of infected cow skins purchased from the local slaughterhouse (Douala, Littoral Region, Cameroon) and incubated in 4 mL complete culture media comprised of RPMI-1640 (Sigma-Aldrich), 5% newborn calf serum, 200 units/mL penicillin, 200 μg/mL streptomycin and 2.5 μg/mL amphotericin B (Sigma-Aldrich) in 12-well plates overnight to validate sterility prior to the assays. Four to eight O. ochengi adult masses were treated individually the following day with a serial dilution of each compound, and controls were treated with 1% DMSO. While in culture, the male worms normally egress from the nodules into the surrounding media and thus can be monitored in parallel for motility. The O. ochengi adult masses were incubated at 37 °C with 5% CO2 for the duration of the assay. Male motility within each well was visually scored every day and over 5 days after compound addition, and female viability within the nodules was assessed by MTT after 7 days as previously described. The O. ochengi adult masses containing female worms were individually placed in wells of a 48-well plate with 0.5 mL of 0.5 mg/mL MTT in PBS and incubated at 37 °C for 30 min. Female viability was visually rated by the degree of formazan production (live worms have blue coloration) in the female worm within the treated nodule versus control worm masses. […] Prism 4.0 for Windows was used to calculate IC50s.

O. volvulus pre-adult L5 [1] = assay: O. volvulus pre-adult (Ov L5) motility assay; type: cell-based, Onchocerca volvulus; settings: for inhibition at 1 µM: Onchocerca volvulus
Method: O. volvulus adult male and female worms, which can only be obtained from infected individuals, are not readily accessible for ex vivo studies. Moreover, since there is no small animal model that can maintain infections by O. volvulus, a recently developed in vitro system was used to evaluate the macrofilaricidal effects on pre-adult worms. All compounds except for 04 were tested in this O. volvulus pre-adult/L5 motility and viability assay.
Briefly, Ov L3 larvae were cultured to the pre-adult/L5 stage in vitro as described by Voronin et al., 2019 [45]. Once larvae reached the L5 stage (after at least 70 days in culture), 8–10 Ov L5 were moved to new transwell inserts in a 24-well plate containing 0.5 mL Ov L4-CMS media seeded with a 3 × 10^4/well Human Umbilical Vein Endothelial Cells (HUVEC) monolayer. Duplicate wells were treated with 1 and/or 10 µM of compound. Ov L5 were exposed to compounds for 14 days (exchanged 50% of media with fresh compound every two days) and then cultured with new media without compound, exchanging 50% of media every 2–3 days, up to day 36. Control Ov L5 were treated with 0.05% DMSO. Concentrations were chosen based on activity in the B. pahangi female motility assay. Motility was assessed visually and ranked on a 0–100% scale every 2–3 days over the course of the assay. At the end of the motility assay, Ov L5 viability was measured by 3-(4,5-dimethylthiazol-2-yl)-2,5-diphenyltetrazolium bromide (MTT) assay. Ov L5 were incubated with 0.1% MTT in PBS at 37 °C for 1 h then visually inspected for blue coloration indicating MTT reduction. Worms were considered dead if <50% of the worm was stained blue, and worms were considered alive if >50% of the worm was stained blue.

O. ochengi mf = assay: O. ochengi microfilariae motility assay; type: cell-based, Onchocerca ochengi
Method: (§1) To assess the effects of the compounds on O. ochengi mf, the mf were harvested from infected cow skin and cultured (10–15 mf per well) in 100 µL media in 96-well plates with a confluent feeder layer of monkey kidney epithelial cells (MK2) as previously described. […] All compounds were also counter-screened with L. loa mf collected from infected individuals with approval from the University of Buea (IRB approval # 964-19). Mf were separated from blood cells using a Percoll gradient as previously described and set up for assays (10–15 mf per well).

O. volvulus pre-adult L5 [2] = assay: O. volvulus pre-adult (Ov L5) motility assay; type: cell-based; settings: Onchocerca volvulus, 504 h; on Day 21; read-out: O. volvulus L5 Inhibition of Motility IC50
Loa loa mf = assay: Loa loa microfilariae motility counter-screen; type: cell-based
Method: as §1

[3] = test system: Brugia pahangi adult females; assay: In vitro motility assay with adult female Brugia pahangi (Worminator)
Brugia pahangi = assay: Brugia pahangi/gerbil model of infection: worm and peritoneal mf counts at necropsy; type: in vivo
Method: Male Mongolian gerbils 50–60 g, 5–7 weeks in age (Meriones unguiculatus, Charles River Laboratories International, Inc., Wilmington, MA, USA) were injected intraperitoneally (IP) with 200 third-larval stage B. pahangi and treated a minimum of 3 months later when larvae developed into adult worms.
Animals were given IP doses of 1 mg/kg once a day for 5 days based on in vivo studies by Jones et al., 2009 [14] and gerbil PK analyses. Compounds are light sensitive and were shielded from light during formulation. Animals were necropsied 13 weeks post-first dose, and peritoneal cavities were washed with 100 mL of PBS to collect adult worms and mf that had been released from female worms. Adult worms were separated by sex, counted, and processed for subsequent analyses. Mf from the peritoneal cavities were quantified by mixing peritoneal wash 9:1 (v/v) with 0.04% methylene blue:water and counted using an inverted microscope.
Worm burden, peritoneal mf counts, overnight mf sheds and qPCR data were analyzed using a Kruskal–Wallis test followed by Dunn’s multiple comparison. To determine significant differences in embryograms, a two-way ANOVA was conducted with a Dunnett’s multiple comparisons test, and significance levels were determined based on comparisons with vehicle treated animals. All statistical analyses were determined using Prism 8 version 8.2.0(272).

[4] = gerbil, 1 mg/kg IP once a day for 5 days, necropsy 13 weeks post-first dose, mean (SEM)
[5] = gerbil, 1 mg/kg IP once a day for 5 days, necropsy 13 weeks post-first dose, mean (SEM), 1 mg/kg

IC50 (O. ochengi adult males): 110 nM | IC50 (O. ochengi mf; Onchocerca ochengi, 120 h, Day 5): 300 nM | IC50 (O. volvulus pre-adult L5 [2]): < 300 nM | IC50 ([3]; Brugia pahangi, 72 h, read-out: Brugia Adult Females Inhibition of Motility Day 3 IC50): 0.3 nM | Brugia Adult Females Inhibition of Motility Day 3 IC50 ([3]; Day 3): sub-micromolar range
Compound: Cc1cc(/C=C/c2ccc3cc(N(C)C)ccc3[n+]2C)c(C)n1-c1ccccc1 [PVP, pyrvinium pamoate, reference compound]
Ov L5 fate during assay (in words) (O. volvulus pre-adult L5 [1]; 1 µM, 14 days drug then washout): dead by day 14; also recorded: did not recover | inhibition at 1 µM (O. volvulus pre-adult L5 [1]; 336 h, Day 14 @ 1 µM): 100% | inhibition at 1 µM (O. volvulus pre-adult L5 [1]; Day 36 @ 1 µM, 14 days drug then washout): > 90% | O. ochengi Mf Inhibition of Motility Day 5 @ 10 µM (O. ochengi mf; 10 µM): completely inhibited | inhibition at 10 µM (O. ochengi mf; Onchocerca ochengi, 120 h, 10 µM, Day 5): 100% | Loa loa Mf Inhibition of Motility Day 5 @ 10 µM (Loa loa mf): completely inhibited | inhibition at 10 µM (Loa loa mf; Loa loa, 120 h, Day 5): 100% | Brugia Adult Females Inhibition of Motility Day 3 @ 1 µM ([3]; 1 µM, Day 3, 1 µM): 82% | inhibition at 1 µM ([3]; Brugia pahangi, 72 h, read-out: Brugia Adult Females Inhibition of Motility Day 3 @ 1 µM, 1 µM, Day 3): > 70% | Total female worms recovered from treated animals (Brugia pahangi; gerbil, 1 mg/kg IP): 1 | Reduction of peritoneal mf numbers compared to control group (Brugia pahangi; gerbil, 1 mg/kg IP once a day for 5 days, 13 weeks post-first dose): ~ 95% | Reduction of adult worm numbers (worm burden) compared to control group (Brugia pahangi; gerbil, 1 mg/kg IP once a day for 5 days, 13 weeks post-first dose, not statistically significant, 1 mg/kg): ~ 95% and 95% | Female worms per animal (Brugia pahangi; [4]): 0.1 (0.1) | Male worms per animal (Brugia pahangi; [4]): 0.7 (0.4) | Adult worms per animal (Brugia pahangi; [5]): 0.9 and 0.9 (0.5) | Mf per animal (peritoneal cavity) (Brugia pahangi; [5]): 10.4 × 10^3 and 10,429 | Total worms recovered from treated animals (Brugia pahangi; n = 7 animals, vehicle total 148 worms (n = 8)): 6 worms
